In this assay the target is T1, full-length human PKCι (Homo sapiens, UniProt P41743).
T1 construct: Recombinant, full-length human PKCι expressed in Sf21 insect cells is also commercially available; purchased; host or cells: Sf21 insect cells
T1 sequence (P41743 1-596): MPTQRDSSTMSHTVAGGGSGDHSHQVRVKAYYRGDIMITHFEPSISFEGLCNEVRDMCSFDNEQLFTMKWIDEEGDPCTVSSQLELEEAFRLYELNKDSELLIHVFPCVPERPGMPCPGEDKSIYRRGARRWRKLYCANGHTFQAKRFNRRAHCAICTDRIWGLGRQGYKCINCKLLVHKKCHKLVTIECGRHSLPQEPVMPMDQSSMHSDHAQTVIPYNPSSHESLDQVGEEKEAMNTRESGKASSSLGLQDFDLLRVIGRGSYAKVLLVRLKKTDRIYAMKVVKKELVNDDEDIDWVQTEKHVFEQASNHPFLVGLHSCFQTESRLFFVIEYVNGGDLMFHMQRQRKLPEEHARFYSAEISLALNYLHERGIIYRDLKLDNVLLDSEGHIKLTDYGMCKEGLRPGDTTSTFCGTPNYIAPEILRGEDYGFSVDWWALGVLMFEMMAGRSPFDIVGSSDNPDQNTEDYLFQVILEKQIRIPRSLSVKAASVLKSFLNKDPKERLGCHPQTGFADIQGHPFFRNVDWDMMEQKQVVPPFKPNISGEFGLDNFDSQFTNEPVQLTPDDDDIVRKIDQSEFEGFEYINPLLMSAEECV
The assay is described as follows: PKCι IC50 IMAP assay, full-length PKCι at 150 μM ATP. The following applies: read-out: IC50 in IMAP assay against full length PKCi at 150 μM ATP. Type of assay: biochemical. The procedure, abridged:
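Compounds in 4% final DMSO are mixed with Sf21-derived full-length human PKCι (typically 15 pM) and 100 nM FAM-labelled pseudosubstrate peptide, then started with 150 μM ATP. Reaction runs 60 min at room temperature, is quenched with IMAP development reagent for 2 h, and fluorescence polarisation is measured to derive IC50.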

Regarding `Fc1cccn2nc(Nc3cc(-c4nc(N5CCNCC5)c5c(C6CC6)cncc5n4)ccn3)nc12` [Example 2032, [4-(5-Cyclopropyl-4-piperazin-1-yl-pyrido[3,4-d]pyrimidin-2-yl)-pyridin-2-yl]-(8-fluoro-[1,2,4]triazolo[1,5-a]pyridin-2-yl)-amine], the IC50 was under 100 nM.

`CNC(=O)c1ccc(Nc2cc(-c3nc(N4CCNCC4)c4c(C5CC5)cncc4n3)ccn2)cc1` [Example 841, -[4-(5-Cyclopropyl-4-piperazin-1-yl-pyrido[3,4-d]pyrimidin-2-yl)-pyridin-2-ylamino]-N-methyl-benzamide]: the half-inhibitory concentration (IC50) is under 100 nM.

As to `COc1cncc2nc(N3CCOCC3)nc(N3CCN[C@@H](COc4ccccc4F)C3)c12` [Example 1008, 4-[(R)-3-(2-Fluoro-phenoxymethyl)-piperazin-1-yl]-5-methoxy-2-morpholin-4-yl-pyrido[3,4-d]pyrimidine], the IC50 lay within 100 to 1000 nM.

Take `COc1cncc2nc(-c3ccnc(Nc4cccc(C)c4F)c3)nc(N3CCNCC3)c12` [Example 451, (2-Fluoro-3-methyl-phenyl)-[4-(5-methoxy-4-piperazin-1-yl-pyrido[3,4-d]pyrimidin-2-yl)-pyridin-2-yl]-amine]: the IC50 is under 100 nM.

Regarding `c1cc(-c2nc(N3CCNCC3)c3c(C4CC4)cncc3n2)cc(Nc2nc3cc(C4CC4)ccn3n2)n1` [Example 831, [4-(5-Cyclopropyl-4-piperazin-1-yl-pyrido[3,4-d]pyrimidin-2-yl)-pyridin-2-yl]-(7-cyclopropyl-[1,2,4]triazolo[1,5-a]pyridin-2-yl)-amine], the IC50 is under 100 nM.

Regarding `CN(c1nc(-c2ccnc(Nc3ccc4ccccc4n3)c2)nc2cncc(C3CC3)c12)C1CCNCC1` [Example 2138, {5-Cyclopropyl-2-[2-([D4],[D3]uinolin-2-ylamino)-pyridin-4-yl]-pyrido[3,4-d]pyrimidin-4-yl}-methyl-piperidin-4-yl-amine], the IC50 is under 100 nM.

Consider `COc1cncc2nc(-c3ccnc(Nc4ccccc4)c3)nc(N3CCNC(=O)C3)c12` [Example 438, 4-[5-Methoxy-2-(2-phenylamino-pyridin-4-yl)-pyrido[3,4-d]pyrimidin-4-yl]-piperazin-2-one], for which the half-inhibitory concentration (IC50) is 1000 to 10000 nM.

Consider `C[C@H]1CN(c2nc(-c3ccnc(Nc4nc(F)cc(F)c4F)c3)nc3cncc(C4CC4)c23)CCN1` [Example 2004, {4-[5-Cyclopropyl-4-((S)-3-methyl-piperazin-1-yl)-pyrido[3,4-d]pyrimidin-2-yl]-pyridin-2-yl}-(3,4,6-trifluoro-pyridin-2-yl)-amine], for which the IC50 is under 100 nM.

On to `C[C@H](N)CNc1nc(-c2ccncc2)nc2cnccc12` [Example 5, N-[(2S)-2-aminopropyl]-2-(pyridin-4-yl)pyrido[3,4-d]-pyrimidin-4-amine], for which the IC50 lay in the range of 10000 to 40000 nM.

In the case of `c1ccc(C2(c3cc4c(-c5nc(N6CCNCC6)c6c(C7CCC7)cncc6n5)ccnc4[nH]3)CC2)cc1` [Example 2113, 5-Cyclobutyl-2-[2-(1-phenyl-cyclopropyl)-1H-pyrrolo[2,3-b]pyridin-4-yl]-4-piperazin-1-yl-pyrido[3,4-d]pyrimidine], the IC50 is under 100 nM.

For the compound `CC(C)N1CCC(N(C)c2nc(-c3ccnc(Nc4c(F)cccc4F)c3)nc3cncc(C4CC4)c23)CC1` [Example 2115, {5-Cyclopropyl-2-[2-(2,6-difluoro-phenylamino)-pyridin-4-yl]-pyrido[3,4-d]pyrimidin-4-yl}-(1-isopropyl-piperidin-4-yl)-methyl-amine], the IC50 was under 100 nM.

Regarding `Fc1cnc(Nc2cc(-c3nc(NC4CCNCC4(F)F)c4c(C5CC5)cncc4n3)ccn2)c(F)c1` (centres unmarked) [Example 2156, {5-Cyclopropyl-2-[2-(3,5-difluoro-pyridin-2-ylamino)-pyridin-4-yl]-pyrido[3,4-d]pyrimidin-4-yl}-(3,3-difluoro-piperidin-4-yl)-amine], the half-maximal inhibitory concentration (IC50) was in the range of 100 to 1000 nM.

Take `CC(C)n1ccc(Nc2cc(-c3nc(N4CCNCC4)c4c(C5CC5)cncc4n3)ccn2)n1` [Example 779, [4-(5-Cyclopropyl-4-piperazin-1-yl-pyrido[3,4-d]pyrimidin-2-yl)-pyridin-2-yl]-(1-isopropyl-1H-pyrazol-3-yl)-amine]: the half-inhibitory concentration (IC50) was under 100 nM.

With `Fc1cccc(F)c1Nc1cc(-c2nc(NC3CCNC3)c3c(C4CC4)cncc3n2)ccn1` (centres unmarked) [Example 837, {5-Cyclopropyl-2-[2-(2,6-difluoro-phenylamino)-pyridin-4-yl]-pyrido[3,4-d]pyrimidin-4-yl}-pyrrolidin-3-yl-amine], the IC50 was under 100 nM.

As for `COc1cncc2nc(-c3ccncc3)nc(N3CCNC(C(F)(F)F)C3)c12` (centres unmarked) [Example 43, 1-[5-methoxy-2-(pyridin-4-yl)pyrido[3,4-d]-pyrimidin-4-yl]-3-(trifluoromethyl)-piperazine], the IC50 lay in the range of 1000 to 10000 nM.

Take `O=S1(=O)CCN(c2nc(-c3ccnc4[nH]c(C(F)(F)F)cc34)nc3cncc(C4CC4)c23)CC1` [Example 1245, 5-Cyclopropyl-4-(1,1-dioxo-1λ^6-thiomorpholin-4-yl)-2-(2-trifluoromethyl-1H-pyrrolo[2,3-b]pyridin-4-yl)-pyrido[3,4-d]pyrimidine]: the IC50 is 10000 to 40000 nM.

As for `c1cc(Nc2cc(-c3nc(N[C@@H]4CCNC4)c4ccncc4n3)ccn2)ncn1` [Example 347, {2-[2-(Pyrimidin-4-ylamino)-pyridin-4-yl]-pyrido[3,4-d]pyrimidin-4-yl}-(R)-pyrrolidin-3-yl-amine], the IC50 was under 100 nM.

As to `COC(=O)C1CN(c2nc(-c3ccncc3)nc3cncc(OC)c23)CCN1` (centres unmarked) [Example 155, 4-(5-Methoxy-2-pyridin-4-yl-pyrido[3,4-d]pyrimidin-4-yl)-piperazine-2-carboxylic acid methyl ester], the IC50 lay within 1000 to 10000 nM.

For the compound `Fc1cccc(F)c1Nc1cc(-c2nc(NC3CCCNCC3)c3c(C4CC4)cncc3n2)ccn1` (centres unmarked) [Example 2058, Azepan-4-yl-{5-cyclopropyl-2-[2-(2,6-difluoro-phenylamino)-pyridin-4-yl]-pyrido[3,4-d]pyrimidin-4-yl}-amine], the IC50 is under 100 nM.

For `OCCN1CCN(c2nc(-c3ccnc(Nc4ccccc4)c3)nc3cncc(C4CC4)c23)CC1` [Example 606, 2-{4-[5-Cyclopropyl-2-(2-phenylamino-pyridin-4-yl)-pyrido[3,4-d]pyrimidin-4-yl]-piperazin-1-yl}-ethanol], the half-maximal inhibitory concentration (IC50) lay in the range of 100 to 1000 nM.

As to `COc1cncc2nc(-c3ccnc(Nc4ccc(F)cc4F)c3)nc(N3CCNCC3)c12` [Example 453, (2,4-Difluoro-phenyl)-[4-(5-methoxy-4-piperazin-1-yl-pyrido[3,4-d]pyrimidin-2-yl)-pyridin-2-yl]-amine], the IC50 is under 100 nM.

On to `c1ccn2nc(Nc3cc(-c4nc(N5CCNCC5)c5c(C6CCC6)cncc5n4)ccn3)nc2c1` [Example 2022, [4-(5-Cyclobutyl-4-piperazin-1-yl-pyrido[3,4-d]pyrimidin-2-yl)-pyridin-2-yl]-[1,2,4]triazolo[1,5-a]pyridin-2-yl-amine], for which the IC50 is under 100 nM.

As for `CN1CCN(c2cccc(Nc3cc(-c4nc(N5CCC(O)CC5)c5c(C6CC6)cncc5n4)ccn3)c2)CC1` [Example 688, 1-(5-Cyclopropyl-2-{2-[3-(4-methyl-piperazin-1-yl)-phenylamno]-pyridin-4-yl}-pyrido[3,4-d]pyrimidin-4-yl)-piperidin-4-ol], the half-inhibitory concentration (IC50) is under 100 nM.

As for `CCc1cncc2nc(-c3ccncc3)nc(N3CCNCC3)c12` [Example 136, 1-[5-ethyl-2-(pyridin-4-yl)pyrido[3,4-d]pyrimidin-4-yl]piperazine], the concentration for half-maximal inhibition (IC50) is under 100 nM.

Consider `COc1cncc2nc(-c3ccnc(Nc4ccccc4)c3)nc(N3CC[C@@H](O)[C@@H](O)CC3)c12` [Example 467, (meso)-cis-1-[5-Methoxy-2-(2-phenylamino-pyridin-4-yl)-pyrido[3,4-d]pyrimidin-4-yl]-azepane-4,5-diol], for which the half-maximal inhibitory concentration (IC50) fell in the range of 1000 to 10000 nM.

On to `C[C@@H](Nc1cc(-c2nc(N3CCNCC3)c3c(C4CC4)cncc3n2)ccn1)c1cccc(F)c1` [Example 644, [4-(5-Cyclopropyl-4-piperazin-1-yl-pyrido[3,4-d]pyrimidin-2-yl)-pyridin-2-yl]-[(R)-1-(3-fluoro-phenyl)-ethyl]-amine], for which the concentration for half-maximal inhibition (IC50) was under 100 nM.

For “(2,6-Difluoro-phenyl)-{2-[2-(2,6-difluoro-phenylamino)-pyridin-4-yl]-4-piperazin-1-yl-pyrido[3,4-d]pyrimidin-5-yl}-amine [Example 262]”, the IC50 lay in the range of 100 to 1000 nM.

Turning to `CN(c1nc(-c2ccnc(Nc3ncc(Cl)cc3F)c2)nc2cncc(C3CC3)c12)C1CCNCC1` [Example 2151, {2-[2-(5-Chloro-3-fluoro-pyridin-2-ylamino)-pyridin-4-yl]-5-cyclopropyl-pyrido[3,4-d]pyrimidin-4-yl}-methyl-piperidin-4-yl-amine], the IC50 was under 100 nM.

For the compound `COc1cncc2nc(-c3ccnc(Nc4ccccc4)c3)nc(NCCC(N)=O)c12` [Example 458, 3-[5-Methoxy-2-(2-phenylamino-pyridin-4-yl)-pyrido[3,4-d]pyrimidin-4-ylamino]-propionamide], the IC50 is 1000 to 10000 nM.

The record behind these values is patent US9914730B2, “Azaquinazoline inhibitors of Atypical protein Kinase C” (Ignyta, Inc., priority 2012, dated 2018).
